Our source for the IC50 values is US12662465B2, “EGFR inhibitors” (Blueprint Medicines Corporation, priority 2021, dated 2026).

Where two headings read alike, the source gives them in different places.

The target in one experiment is T1, EGFR L858R (Homo sapiens, UniProt P00533, L858R).
T1 construct: purchased SignalChem E10-122BG
Kind of experiment: Biochemical EGFR inhibition assay (Caliper mobility shift), EGFR L858R. As to conditions: read-out: Enz EGFR_L858R IC50.

In another experiment the target is T2, EGFR (d746-750) (Homo sapiens, UniProt P00533, DEL746-750).
T2 construct: purchased SignalChem E10-122JG
The experiment in a line: Biochemical EGFR inhibition assay (Caliper mobility shift), EGFR (d746-750). As to conditions: read-out: Enz EGFR_Exon19-del746-750 IC50.

Experiment [1] has as its target intracellular phosphorylation of EGFR (Tyr1068) in PC-9 cells (Ex19Del) (Homo sapiens, UniProt P00533, DEL746-750). The experiment in a line: PC-9 pEGFR AlphaLISA assay. The experiment is classed as cell-based. The conditions noted are these: 4 hours compound incubation, read-out: Ext pEGFR_PC-9 Ex19Del IC50. For orientation: Bead proximity is the source of the signal in Alpha formats.

Setting [2] is: 1.0 mM ATP or ATP Km, room temperature (25° C.).

T1 sequence (P00533 25-1210 L858R): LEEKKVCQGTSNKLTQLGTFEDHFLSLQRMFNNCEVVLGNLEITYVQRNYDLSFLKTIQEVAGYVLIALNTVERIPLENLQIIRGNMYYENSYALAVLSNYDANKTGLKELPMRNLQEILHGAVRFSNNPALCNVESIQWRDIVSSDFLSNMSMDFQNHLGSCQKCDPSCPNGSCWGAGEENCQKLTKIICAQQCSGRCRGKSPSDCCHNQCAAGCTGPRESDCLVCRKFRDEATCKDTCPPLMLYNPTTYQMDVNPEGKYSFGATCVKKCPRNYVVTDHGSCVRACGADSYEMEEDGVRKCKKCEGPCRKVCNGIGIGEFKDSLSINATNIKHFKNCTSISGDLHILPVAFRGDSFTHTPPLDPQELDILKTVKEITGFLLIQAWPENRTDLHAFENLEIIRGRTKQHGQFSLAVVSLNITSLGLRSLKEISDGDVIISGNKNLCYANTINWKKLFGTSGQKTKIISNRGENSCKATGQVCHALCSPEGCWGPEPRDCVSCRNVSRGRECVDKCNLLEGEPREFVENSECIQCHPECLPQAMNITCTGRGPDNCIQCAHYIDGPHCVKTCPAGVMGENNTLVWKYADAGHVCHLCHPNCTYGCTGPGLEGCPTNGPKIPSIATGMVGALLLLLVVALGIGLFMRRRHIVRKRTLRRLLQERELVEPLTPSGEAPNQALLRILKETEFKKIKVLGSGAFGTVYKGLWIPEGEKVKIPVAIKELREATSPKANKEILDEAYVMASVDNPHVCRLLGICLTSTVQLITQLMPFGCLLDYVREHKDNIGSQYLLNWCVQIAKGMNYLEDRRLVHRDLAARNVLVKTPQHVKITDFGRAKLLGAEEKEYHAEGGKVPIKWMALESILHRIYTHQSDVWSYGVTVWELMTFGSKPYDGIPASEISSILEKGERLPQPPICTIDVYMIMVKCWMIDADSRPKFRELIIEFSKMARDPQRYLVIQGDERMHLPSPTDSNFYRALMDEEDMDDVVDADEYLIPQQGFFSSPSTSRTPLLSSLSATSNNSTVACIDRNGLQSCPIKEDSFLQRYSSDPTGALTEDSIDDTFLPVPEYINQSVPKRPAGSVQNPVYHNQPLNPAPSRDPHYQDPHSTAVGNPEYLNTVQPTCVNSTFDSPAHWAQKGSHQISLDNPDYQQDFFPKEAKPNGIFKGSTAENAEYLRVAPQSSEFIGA
Chain of intracellular phosphorylation of EGFR (Tyr1068) in PC-9 cells (Ex19Del) (P00533 with tags, fused parts or gaps DEL746-750): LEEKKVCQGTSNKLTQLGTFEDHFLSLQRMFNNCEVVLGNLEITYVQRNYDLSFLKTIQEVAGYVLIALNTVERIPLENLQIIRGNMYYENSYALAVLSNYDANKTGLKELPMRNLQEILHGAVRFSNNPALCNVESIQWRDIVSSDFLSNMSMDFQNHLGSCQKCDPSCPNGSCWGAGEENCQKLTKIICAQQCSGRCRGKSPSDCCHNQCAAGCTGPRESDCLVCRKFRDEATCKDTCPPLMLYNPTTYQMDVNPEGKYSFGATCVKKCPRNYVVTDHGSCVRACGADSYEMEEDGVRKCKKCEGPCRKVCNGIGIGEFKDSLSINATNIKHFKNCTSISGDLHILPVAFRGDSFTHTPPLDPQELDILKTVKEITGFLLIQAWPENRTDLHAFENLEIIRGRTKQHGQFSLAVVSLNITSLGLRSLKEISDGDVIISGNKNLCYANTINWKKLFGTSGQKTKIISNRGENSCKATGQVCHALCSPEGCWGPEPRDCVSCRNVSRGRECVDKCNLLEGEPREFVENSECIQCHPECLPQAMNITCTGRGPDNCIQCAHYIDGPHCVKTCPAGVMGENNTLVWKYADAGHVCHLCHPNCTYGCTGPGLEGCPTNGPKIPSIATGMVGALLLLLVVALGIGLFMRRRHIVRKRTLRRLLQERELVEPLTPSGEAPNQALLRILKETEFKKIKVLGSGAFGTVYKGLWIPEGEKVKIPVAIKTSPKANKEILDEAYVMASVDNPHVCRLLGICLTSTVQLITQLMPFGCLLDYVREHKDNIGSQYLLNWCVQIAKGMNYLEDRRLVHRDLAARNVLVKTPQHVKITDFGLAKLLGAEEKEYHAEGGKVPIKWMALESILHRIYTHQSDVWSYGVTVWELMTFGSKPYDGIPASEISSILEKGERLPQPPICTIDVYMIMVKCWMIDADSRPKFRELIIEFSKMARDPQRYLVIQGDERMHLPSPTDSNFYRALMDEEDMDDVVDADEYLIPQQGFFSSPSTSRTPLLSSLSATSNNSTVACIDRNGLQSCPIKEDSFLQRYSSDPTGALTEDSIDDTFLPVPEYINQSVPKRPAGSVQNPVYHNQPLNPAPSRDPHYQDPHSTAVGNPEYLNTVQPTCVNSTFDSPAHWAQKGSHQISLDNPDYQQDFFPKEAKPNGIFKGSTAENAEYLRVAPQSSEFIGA
T2 sequence (P00533 with tags, fused parts or gaps DEL746-750 limits assumed): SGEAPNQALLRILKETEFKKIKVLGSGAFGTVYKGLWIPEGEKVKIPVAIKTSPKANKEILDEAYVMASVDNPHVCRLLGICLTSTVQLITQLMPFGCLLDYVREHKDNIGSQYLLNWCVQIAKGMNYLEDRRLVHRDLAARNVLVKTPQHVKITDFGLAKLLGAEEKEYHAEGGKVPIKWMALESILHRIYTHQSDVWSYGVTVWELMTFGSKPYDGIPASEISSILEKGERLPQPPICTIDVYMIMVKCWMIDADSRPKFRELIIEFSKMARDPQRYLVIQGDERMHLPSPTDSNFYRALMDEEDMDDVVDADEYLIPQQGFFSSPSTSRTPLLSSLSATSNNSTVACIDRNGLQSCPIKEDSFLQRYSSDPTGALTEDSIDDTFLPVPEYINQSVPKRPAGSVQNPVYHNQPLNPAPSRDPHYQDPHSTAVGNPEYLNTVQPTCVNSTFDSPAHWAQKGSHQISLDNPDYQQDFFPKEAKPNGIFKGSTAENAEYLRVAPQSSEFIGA

With `CO[C@@H]1CCN(c2cc3ncnc(Nc4ccc5ncccc5c4F)c3c(O[C@H](C)CN(C)C)n2)C1` [Example 76, 5—(((R)-1-(dimethylamino)propan-2-yl)oxy)-N-(5-fluoroquinolin-6-yl)-7-((R)-3-methoxypyrrolidin-1-yl)pyrido[4,3-d]pyrimidin-4-amine], the 50% inhibitory concentration (IC50) (usually the midpoint of a concentration-inhibition curve) on EGFR L858R was less than 10 nM; at EGFR (d746-750), less than 10 nM; in experiment [1] it was not above 10 nM.

For the compound `CCOc1cc2ncnc(Nc3ccc4ncccc4c3F)c2c(O[C@H](C)CN(C)C)n1` [Example 58, (R)-5-((1-(dimethylamino)propan-2-yl)oxy)-7-ethoxy-N-(5-fluoroquinolin-6-yl)pyrido[4,3-d]pyrimidin-4-amine], the results for the IC50 (at EGFR L858R; on EGFR (d746-750); in experiment [1]) were more than 50.1 nM, 10.1 to 50 nM and more than 50.1 nM, respectively.

Take `Cn1cc(-c2cc(O[C@@H]3CC[C@@H]3O)c3c(Nc4ccc5ncccc5c4F)ncnc3c2)cn1` (single isomer, unassigned) [Example 16, (1S,2R)-2-((4-((5-fluoroquinolin-6-yl)amino)-7-(1-methyl-1H-pyrazol-4-yl)quinazolin-5-yl)oxy)cyclobutan-1-ol or (1R,2S)-2-((4-((5-fluoroquinolin-6-yl)amino)-7-(1-methyl-1H-pyrazol-4-yl)quinazolin-5-yl)oxy)cyclobutan-1-ol]: the half-inhibitory concentration (IC50) at EGFR L858R (setting [2]) was less than 10 nM; on EGFR (d746-750) (setting [2]), less than 10 nM; in experiment [1], not above 10 nM.

For `C[C@H](CN(C)C)Oc1nc(N2CC[C@H](C(C)(C)O)C2)cc2ncnc(Nc3ccc4ncccc4c3F)c12` [Example 75, 2—((S)-1-(5-(((R)-1-(dimethylamino)propan-2-yl)oxy)-4-((5-fluoroquinolin-6-yl)amino)pyrido[4,3-d]pyrimidin-7-yl)pyrrolidin-3-yl)propan-2-ol], the figures for the 50% inhibitory concentration (IC50) (at EGFR L858R; at EGFR (d746-750); in experiment [1]) were 10.1 to 50 nM, less than 10 nM and 10.1 to 50 nM, respectively.

As for `C[C@H](CN(C)C)Oc1cc(-c2cnn(C)c2)cc2ncnc(Nc3ccc4cccnc4c3)c12` [Example 13, (R)-5-((1-(dimethylamino)propan-2-yl)oxy)-7-(1-methyl-1H-pyrazol-4-yl)-N-(quinolin-7-yl)quinazolin-4-amine], the half-inhibitory concentration (IC50) is less than 10 nM on EGFR L858R, less than 10 nM at EGFR (d746-750) and not above 10 nM in experiment [1].

With `C[C@H](CN(C)C)Oc1cc(-c2cnn(C)c2)cc2ncnc(Nc3cnc4ccccc4c3)c12` [Example 14, (R)-5-((1-(dimethylamino)propan-2-yl)oxy)-7-(1-methyl-1H-pyrazol-4-yl)-N-(quinolin-3-yl)quinazolin-4-amine], the figures for the IC50 (on EGFR L858R; on EGFR (d746-750); in experiment [1]) were less than 10 nM, less than 10 nM and not above 10 nM, respectively.

For `CC[C@H](CN(C)C)Oc1cc(-c2cnn(C)c2)cc2ncnc(Nc3ccc4ncccc4c3F)c12` [Example 24, (R)-5-((1-(dimethylamino)butan-2-yl)oxy)-N-(5-fluoroquinolin-6-yl)-7-(1-methyl-1H-pyrazol-4-yl)quinazolin-4-amine], the IC50 on EGFR L858R was less than 10 nM; at EGFR (d746-750), less than 10 nM; in experiment [1], not above 10 nM.

With `Cc1ccc2c(F)c(Nc3ncnc4cc(-c5cnn(C)c5)cc(O[C@H](C)CN(C)C)c34)ccc2n1` [Example 107, (R)-5-((1-(dimethylamino)propan-2-yl)oxy)-N-(5-fluoro-2-methylquinolin-6-yl)-7-(1-methyl-1H-pyrazol-4-yl)quinazolin-4-amine], the IC50 was 10.1 to 50 nM at EGFR L858R, less than 10 nM on EGFR (d746-750) and 10.1 to 50 nM in experiment [1].

As for `C[C@H](CN(C)C)Oc1cc(N2CC(C)(O)C2)cc2ncnc(Nc3ccc4ncccc4c3F)c12` [Example 93, (R)-1-(5-((1-(dimethylamino)propan-2-yl)oxy)-4-((5-fluoroquinolin-6-yl)amino)quinazolin-7-yl)-3-methylazetidin-3-ol], the half-inhibitory concentration (IC50) on EGFR L858R was 10.1 to 50 nM; at EGFR (d746-750) it was less than 10 nM; in experiment [1], 10.1 to 50 nM.

Take `C[C@H](CN(C)C)Oc1cc(N2CC3CC(C2)O3)cc2ncnc(Nc3ccc4ncccc4c3F)c12` [Example 70, 7-(6-oxa-3-azabicyclo[3.1.1]heptan-3-yl)-5-(((R)-1-(dimethylamino)propan-2-yl)oxy)-N-(5-fluoroquinolin-6-yl)quinazolin-4-amine]: the 50% inhibitory concentration (IC50) was 10.1 to 50 nM at EGFR L858R, less than 10 nM on EGFR (d746-750) and not above 10 nM in experiment [1].

As to `C[C@H](CN(C)C)Oc1cc(N2CC3CCC(C2)O3)cc2ncnc(Nc3ccc4ncccc4c3F)c12` [Example 69, 7-(8-oxa-3-azabicyclo[3.2.1]octan-3-yl)-5-(((R)-1-(dimethylamino)propan-2-yl)oxy)-N-(5-fluoroquinolin-6-yl)quinazolin-4-amine], the half-inhibitory concentration (IC50) at EGFR L858R is more than 50.1 nM; at EGFR (d746-750), 10.1 to 50 nM; in experiment [1], more than 50.1 nM.

`CC(CN(C)C)Oc1cc(N2CC3CC(C2)O3)cc2ncnc(Nc3ccc4ncccc4c3)c12` (single isomer, unassigned) [Example 67, 7-(6-oxa-3-azabicyclo[3.1.1]heptan-3-yl)-5-(((R)-1-(dimethylamino)propan-2-yl)oxy)-N-(quinolin-6-yl)quinazolin-4-amine or 7-(6-oxa-3-azabicyclo[3.1.1]heptan-3-yl)-5-(((S)-1-(dimethylamino)propan-2-yl)oxy)-N-(quinolin-6-yl)quinazolin-4-amine]: the half-maximal inhibitory concentration (IC50) (at EGFR L858R; at EGFR (d746-750); in experiment [1]) was 10.1 to 50 nM throughout.

As to `CO[C@H]1CCN(c2cc3ncnc(Nc4ccc5ncccc5c4F)c3c(OC(C)CN(C)C)n2)C1` (stereo in doubt) [Example 77, 5—(((S)-1-(dimethylamino)propan-2-yl)oxy)-N-(5-fluoroquinolin-6-yl)-7-((S)-3-methoxypyrrolidin-1-yl)pyrido[4,3-d]pyrimidin-4-amine], the half-inhibitory concentration (IC50) is 10.1 to 50 nM at EGFR L858R, less than 10 nM at EGFR (d746-750) and 10.1 to 50 nM in experiment [1].

On to `CNC[C@@H](C)Oc1cc(-c2cnn(C)c2)cc2ncnc(Nc3ccc4ncccc4c3F)c12` [Example 100, (R)—N-(5-fluoroquinolin-6-yl)-7-(1-methyl-1H-pyrazol-4-yl)-5-((1-(methylamino)propan-2-yl)oxy)quinazolin-4-amine], for which the IC50 (at EGFR L858R; at EGFR (d746-750); in experiment [1]) was 10.1 to 50 nM in each case.

As for `CN1CCC(Oc2cc(-c3cnn(CC(F)F)c3)cc3ncnc(Nc4ccc5ncccc5c4F)c23)CC1` [Example 53, 7-(1-(2,2-difluoroethyl)-1H-pyrazol-4-yl)-N-(5-fluoroquinolin-6-yl)-5-((1-methylpiperidin-4-yl)oxy)quinazolin-4-amine], the concentration for half-maximal inhibition (IC50) at EGFR L858R was less than 10 nM; at EGFR (d746-750), less than 10 nM; in experiment [1] it was not above 10 nM.

Turning to `C[C@H](CN(C)C)Oc1cc(N2CC[C@@H](C(C)(C)O)C2)cc2ncnc(Nc3ccc4ncccc4c3F)c12` [Example 72, 2—((R)-1-(5-(((R)-1-(dimethylamino)propan-2-yl)oxy)-4-((5-fluoroquinolin-6-yl)amino)quinazolin-7-yl)pyrrolidin-3-yl)propan-2-ol], the IC50 at EGFR L858R is 10.1 to 50 nM; on EGFR (d746-750), less than 10 nM; in experiment [1] it was 10.1 to 50 nM.

In the case of `COc1cc(O[C@H](C)C2COC2)c2c(Nc3ccc4ncccc4c3F)ncnc2c1` [Example 56, (R)—N-(5-fluoroquinolin-6-yl)-7-methoxy-5-(1-(oxetan-3-yl)ethoxy)quinazolin-4-amine], the concentration for half-maximal inhibition (IC50) is less than 10 nM on EGFR L858R, less than 10 nM at EGFR (d746-750) and not above 10 nM in experiment [1].

Take `CN(C)CC1(COc2cc(-c3cnn(C)c3)cc3ncnc(Nc4ccc5ncccc5c4F)c23)COC1` [Example 12, 5-((3-((dimethylamino)methyl)oxetan-3-yl)methoxy)-N-(5-fluoroquinolin-6-yl)-7-(1-methyl-1H-pyrazol-4-yl) quinazolin-4-amine]: the 50% inhibitory concentration (IC50) on EGFR L858R is 10.1 to 50 nM; at EGFR (d746-750), less than 10 nM; in experiment [1], more than 50.1 nM.

Turning to `C[C@@H](Oc1cc(-c2cnn(C)c2)cc2ncnc(Nc3c(F)cc4ncccc4c3F)c12)C1COC1` [Example 8, (R)—N-(5,7-difluoroquinolin-6-yl)-7-(1-methyl-1H-pyrazol-4-yl)-5-(1-(oxetan-3-yl)ethoxy)quinazolin-4-amine], the IC50 at EGFR L858R was less than 10 nM; at EGFR (d746-750), less than 10 nM; in experiment [1], not above 10 nM.

As for `CN1CC[C@H](Oc2cc(-c3cnn(C)c3)cc3ncnc(Nc4ccc5ncccc5c4F)c23)[C@@H](F)C1` (single isomer, unassigned) [Example 144, 5-(((3S,4S)-3-fluoro-1-methylpiperidin-4-yl)oxy)-N-(5-fluoroquinolin-6-yl)-7-(1-methyl-1H-pyrazol-4-yl)quinazolin-4-amine or 5-(((3R,4R)-3-fluoro-1-methylpiperidin-4-yl)oxy)-N-(5-fluoroquinolin-6-yl)-7-(1-methyl-1H-pyrazol-4-yl)quinazolin-4-amine], the results for the half-maximal inhibitory concentration (IC50) (on EGFR L858R (setting [2]); on EGFR (d746-750) (setting [2]); in experiment [1]) were less than 10 nM, less than 10 nM and 10.1 to 50 nM, respectively.

For the compound `C[C@H](Oc1cc(-c2cnn(C)c2)cc2ncnc(Nc3ccc4ncccc4c3F)c12)C(=O)N(C)C` (single isomer, unassigned) [Example 137, (S)-2-((4-((5-fluoroquinolin-6-yl)amino)-7-(1-methyl-1H-pyrazol-4-yl)quinazolin-5-yl)oxy)-N,N-dimethylpropanamide or (R)-2-((4-((5-fluoroquinolin-6-yl)amino)-7-(1-methyl-1H-pyrazol-4-yl)quinazolin-5-yl)oxy)-N,N-dimethylpropanamide], the figures for the 50% inhibitory concentration (IC50) (on EGFR L858R (setting [2]); on EGFR (d746-750) (setting [2]); in experiment [1]) were less than 10 nM, less than 10 nM and not above 10 nM, respectively.
